Results taken from patent US12264170B2, “Antimicrobial organosilanes” (TOPIKOS SCIENTIFIC, INC., priority 2019, dated 2025).

Tested on: Candida auris CDC 0381
Test: MIC microdilution assay
Type: cell-based
Conditions: Candidozyma auris, CDC0381; C. auris CDC 0381; RPMI media; 35±2° C. 24 to 48 hours; two values given; read-out: MIC
Protocol: Strain numbers starting with “ATCC” were acquired from the American Type Culture Collection (Manassas, VA), while strain numbers starting with “CDC” were acquired from the Centers for Disease Control and Prevention (Atlanta, GA). All strains were maintained as −80° C. frozen glycerol stocks. S. aureus and P. aeruginosa were grown overnight on Tryptic Soy Agar (TSA) plates at 35±2° C., ambient atmosphere, while S. pyogenes was grown overnight on TSA+5% defibrinated sheep blood at 35±2° C., 5% CO2. All fungal species (i.e. C. albicans, C. auris and C. herbarum) were grown on Sabouraud Dextrose Agar (SDA) plates. C. herbarum was grown at 25±2° C. for 5 to 7 days, while all other fungal strains were grown at 35±2° C. overnight.
Test articles Compound 2 (batch #2G13A0.368) and Compound 23 (batch #2G17A0.372) were received and stored at 4° C. The antibiotic Tobramycin and antifungal Amphotericin B were used as quality control (QC) compounds for the MIC assay. Stock solutions of 3.2 mg/mL Tobramycin (Sigma-Aldrich, cat #T1783-500MG) and 3.2 mg/mL Amphotericin B (CP Lab Chemicals, cat #TOK-A007-1G) were prepared in sterile ultrapure water.
For bacteria strains, a few colonies of each strain were collected with a sterile swab and used to make a McFarland 0.5 standard solution (approximately 1×10^8 CFU/mL) in sterile PBS. The McFarland was then diluted 1:180 in Cation Adjusted Muller-Hinton Broth (CAMHB) for S. aureus and P. aeruginosa, and in […]+5% defibrinated sheep blood for S. pyogenes. 90 μL of this inoculum was combined with 10 μL of the 10× test article in a 96-well plate for a final concentration of 1×.
For the yeasts C. albicans and C. auris, a McFarland 0.5 standard solution in sterile PBS was similarly prepared (approximately 1×10^6 CFU/mL) and was subsequently diluted 1:180 in RPMI 1640 media buffered with 0.165 M MOPS at pH 7.0 (herein referred to as “RPMI media”). 90 μL of the Candida inoculum was combined with 10 μL of the 10× test article in a 96-well plate for a final concentration of 1×.
All bacterial-strain MIC 96-well plates were incubated at 35±2° C. for 18 to 20 hours, while all Candida MIC 96-well plates were incubated at 35±2° C. for 24 to 48 hours. C. herbarum MIC 96-well plates were incubated at 25±2° C. for 3 to 5 days, until growth was visible in the growth control wells. After incubation, the 96-well plates were examined visually and on a spectrophotometer at absorbance OD650. MIC is defined as the lowest concentration of a compound in which no visible growth is observed.

MIC: > 32 µg/mL
SMILES: NC[C@H]1O[C@H](O[C@H]2[C@H](O)[C@@H](O[C@H]3O[C@H](CO)[C@@H](O)[C@H](N)[C@H]3O)[C@H](N)C[C@@H]2N)[C@H](N)C[C@@H]1O [Tobramycin]
